Legend:
AVEFA [1] = assay: Post-emergence action against AVEFA; assay type: in vivo, Avena fatua; details: post-emergence, dosage 80 g/ha, visual assessment about 3 weeks after treatment vs untreated controls
Outline: (§1)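 Weeds grown in sandy loam in greenhouse, treated at one-leaf stage (2–3 weeks after sowing) with WP or EC formulations sprayed as aqueous suspension/emulsion at 600 to […] water with 0.2% wetting agent. Visual rating after about 3 weeks versus untreated controls, as % herbicidal action (100% = plants dead, 0% = like control).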

AMARE [2] = assay: Pre-emergence action against AMARE; assay type: in vivo, Amaranthus retroflexus; details: pre-emergence, dosage 320 g/ha, scored visually after 3 weeks vs untreated controls; for pest or weed control at 320 g/ha: Amaranthus retroflexus, 504 h, read-out: Pre-emergence action against AMARE (herbicidal activity)
Outline: (§2)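 Seeds sown in sandy loam in wood-fiber pots and covered with soil. Greenhouse growth; visual damage scored after 3 weeks versus untreated controls (100% = dead, 0% = like control).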

ECHCG [3] = assay: Pre-emergence action against ECHCG; assay type: in vivo, Echinochloa crus-galli; details: pre-emergence, dosage 320 g/ha, scored visually after 3 weeks vs untreated controls; for pest or weed control at 320 g/ha: Echinochloa crus-galli, 504 h, read-out: Pre-emergence action against ECHCG (herbicidal activity)
Outline: as §2

DIGSA [4] = assay: Post-emergence action against DIGSA; assay type: in vivo, Digitaria sanguinalis; details: dosage 80 g/ha, visual assessment about 3 weeks after treatment vs untreated controls
Description: Seeds of monocotyledonous and dicotyledonous weed and crop plants are laid out in sandy loam soil in wood-fiber pots, covered with soil and cultivated in a greenhouse under good growth conditions. 2 to 3 weeks after sowing, the test plants are treated at the one-leaf stage. The compounds of the invention, formulated in the form of wettable powders (WP) or as emulsion concentrates (EC), are then sprayed onto the green parts of the plants in the form of an aqueous suspension or emulsion at a water application rate equating to […], with addition of 0.2% wetting agent. After the test plants have been left to stand in the greenhouse under optimal growth conditions for about 3 weeks, the action of the preparations is assessed visually in comparison to untreated controls (herbicidal action in percent (%): 100% activity=the plants have died, 0% activity=like control plants). […] At the same time, inventive compounds leave Gramineae crops such as barley, wheat, rye, millet/Sorghum, corn or rice virtually undamaged when applied post-emergence, even at high active ingredient dosages. In addition, some substances are also harmless to dicotyledonous crops such as soya, cotton, oilseed rape, sugar beet or potatoes. Some of the compounds according to the invention have high selectivity and are therefore suitable for controlling unwanted vegetation in agricultural crops by the post-emergence method. The data of Tables B18 to B34 below illustrate, in an exemplary manner, the […] herbicidal action of the compounds according to the invention, the herbicidal activity being stated in percent.

VIOTR [5] = assay: Post-emergence action against VIOTR; assay type: in vivo, Viola tricolor; details: post-emergence, dosage 80 g/ha; for pest or weed control at 80 g/ha: Viola tricolor, 504 h
Outline: as §1

PHBPU [6] = assay: Pre-emergence action against PHBPU; assay type: in vivo, Pharbitis purpurea; details: Dosage 320 g/ha, pre-emergence; for pest or weed control at 320 g/ha: Ipomoea purpurea, 504 h
Outline: as §2

HORMU = assay: Pre-emergence action against HORMU; assay type: in vivo, Hordeum murinum; details: Dosage 320 g/ha; for pest or weed control at 320 g/ha: Hordeum murinum, 504 h
Outline: as §2

VERPE [7] = assay: Pre-emergence action against VERPE; assay type: in vivo, Veronica persica; details: Dosage 320 g/ha, pre-emergence; for pest or weed control at 320 g/ha: Veronica persica, 504 h
Outline: as §2

VERPE [8] = assay: Post-emergence action against VERPE; assay type: in vivo, Veronica persica; details: dosage 80 g/ha; for pest or weed control at 80 g/ha: Veronica persica, 504 h
Outline: as §1

ABUTH [9] = assay: Post-emergence action against ABUTH; assay type: in vivo, Abutilon theophrasti; details: post-emergence, dosage 80 g/ha, visual assessment about 3 weeks after treatment vs untreated controls; for pest or weed control at 80 g/ha: Abutilon theophrasti, 504 h, read-out: Post-emergence action against ABUTH (herbicidal action in percent)
Outline: as §1

VIOTR [10] = assay: Pre-emergence action against VIOTR; assay type: in vivo, Viola tricolor; details: Dosage 320 g/ha, pre-emergence; for pest or weed control at 320 g/ha: Viola tricolor, 504 h
Outline: as §2

LOLRI = assay: Pre-emergence action against LOLRI; assay type: in vivo, Lolium rigidum; details: dosage 320 g/ha, scored visually after 3 weeks vs untreated controls
Outline: as §2

ABUTH [11] = assay: Pre-emergence action against ABUTH; assay type: in vivo, Abutilon theophrasti; details: pre-emergence, dosage 320 g/ha, scored visually after 3 weeks vs untreated controls; for pest or weed control at 320 g/ha: Abutilon theophrasti, 504 h, read-out: Pre-emergence action against ABUTH (herbicidal activity)
Outline: as §2

ALOMY = assay: Pre-emergence action against ALOMY; assay type: in vivo, Alopecurus myosuroides; details: dosage 320 g/ha, pre-emergence, scored visually after 3 weeks vs untreated controls, 100% = plants have died, 0% = like control plants; for pest or weed control at 320 g/ha: Alopecurus myosuroides, 504 h, read-out: Pre-emergence action against ALOMY (herbicidal activity in percent)
Outline: as §2

DIGSA [12] = assay: Pre-emergence action against DIGSA; assay type: in vivo, Digitaria sanguinalis; details: dosage 320 g/ha, scored visually after 3 weeks vs untreated controls
Outline: as §2

ECHCG [13] = assay: Post-emergence action against ECHCG; assay type: in vivo, Echinochloa crus-galli; details: post-emergence, dosage 80 g/ha, visual assessment about 3 weeks after treatment vs untreated controls; for pest or weed control at 80 g/ha: Echinochloa crus-galli, 504 h, read-out: Post-emergence action against ECHCG (herbicidal action in percent)
Outline: as §1

STEME [14] = assay: Pre-emergence action against STEME; assay type: in vivo, Stellaria media; details: Dosage 320 g/ha, pre-emergence; for pest or weed control at 320 g/ha: Stellaria media, 504 h
Outline: as §2

STEME [15] = assay: Post-emergence action against STEME; assay type: in vivo, Stellaria media; details: post-emergence, dosage 80 g/ha; for pest or weed control at 80 g/ha: Stellaria media, 504 h
Outline: as §1

AVEFA [16] = assay: Pre-emergence action against AVEFA; assay type: in vivo, Avena fatua; details: dosage 320 g/ha, scored visually after 3 weeks vs untreated controls; for pest or weed control at 320 g/ha: Avena fatua, 504 h, read-out: Pre-emergence action against AVEFA (herbicidal activity)
Outline: as §2

MATIN [17] = assay: Pre-emergence action against MATIN; assay type: in vivo, Matricaria inodora; details: Dosage 320 g/ha, pre-emergence; for pest or weed control at 320 g/ha: Tripleurospermum inodorum, 504 h
Outline: as §2

AMARE [18] = assay: Post-emergence action against AMARE; assay type: in vivo, Amaranthus retroflexus; details: post-emergence, dosage 80 g/ha, visual assessment about 3 weeks after treatment vs untreated controls; for pest or weed control at 80 g/ha: Amaranthus retroflexus, 504 h, read-out: Post-emergence action against AMARE (herbicidal action in percent)
Outline: as §1

MATIN [19] = assay: Post-emergence action against MATIN; assay type: in vivo, Matricaria inodora; details: post-emergence, dosage 80 g/ha, visual assessment about 3 weeks after treatment vs untreated controls; for pest or weed control at 80 g/ha: Tripleurospermum inodorum, 504 h, read-out: Post-emergence action against MATIN (herbicidal action in percent)
Outline: as §1

PHBPU [20] = assay: Post-emergence action against PHBPU; assay type: in vivo, Pharbitis purpurea; details: post-emergence, dosage 80 g/ha; for pest or weed control at 80 g/ha: Ipomoea purpurea, 504 h
Outline: as §1

SETVI [21] = assay: Pre-emergence action against SETVI; assay type: in vivo, Setaria viridis; details: pre-emergence, dosage 320 g/ha, scored visually after 3 weeks vs untreated controls; for pest or weed control at 320 g/ha: Setaria viridis, 504 h, read-out: SETVI (Table B8, pre-emergence herbicidal activity)
Outline: as §2

POLCO [22] = assay: Post-emergence action against POLCO; assay type: in vivo, Polygonum convolvulus; details: Fallopia convolvulus, 504 h; post-emergence, dosage 80 g/ha
Outline: as §1

POLCO [23] = assay: Pre-emergence action against POLCO; assay type: in vivo, Polygonum convolvulus; details: Fallopia convolvulus, 504 h; Dosage 320 g/ha, pre-emergence
Outline: as §2

SETVI [24] = assay: Post-emergence action against SETVI; assay type: in vivo, Setaria viridis; details: Setaria viridis, 504 h; post-emergence, dosage 80 g/ha, visual assessment about 3 weeks after treatment vs untreated controls; read-out: Post-emergence action against SETVI (herbicidal action in percent)
Outline: as §1

## CSc1c(C(=O)Nc2nnnn2C)ccc(C(F)(F)F)c1C(=O)C1CCC1 [1-284]
AVEFA [1]
  Post-emergence action against AVEFA (herbicidal action in percent): 80%
AMARE [2]
  Pre-emergence action against AMARE (herbicidal activity): 100%
ECHCG [3]
  Pre-emergence action against ECHCG (herbicidal activity): 100%
DIGSA [4]
  Post-emergence action against DIGSA (herbicidal action in percent): 90%
VIOTR [5]
  Post-emergence action against VIOTR: 100
PHBPU [6]
  Pre-emergence action against PHBPU: 80%
HORMU
  Pre-emergence action against HORMU: 80%
VERPE [7]
  Pre-emergence action against VERPE: 100%
VERPE [8]
  Post-emergence action against VERPE: 90
ABUTH [9]
  Post-emergence action against ABUTH (herbicidal action in percent): 100%
VIOTR [10]
  Pre-emergence action against VIOTR: 90%
LOLRI
  Pre-emergence action against LOLRI (herbicidal activity): 90%
ABUTH [11]
  Pre-emergence action against ABUTH (herbicidal activity): 100%
ALOMY
  Pre-emergence action against ALOMY (herbicidal activity in percent): 90%
DIGSA [12]
  Pre-emergence action against DIGSA (herbicidal activity): 100%
ECHCG [13]
  Post-emergence action against ECHCG (herbicidal action in percent): 100%
STEME [14]
  Pre-emergence action against STEME: 100%
STEME [15]
  Post-emergence action against STEME: 100
AVEFA [16]
  Pre-emergence action against AVEFA (herbicidal activity): 90%
MATIN [17]
  Pre-emergence action against MATIN: 100%
AMARE [18]
  Post-emergence action against AMARE (herbicidal action in percent): 100%
MATIN [19]
  Post-emergence action against MATIN (herbicidal action in percent): 100%
PHBPU [20]
  Post-emergence action against PHBPU: 90
SETVI [21]
  SETVI (Table B8, pre-emergence herbicidal activity): 100%

## Cn1nnnc1NC(=O)c1ccc(C(F)(F)F)c(C(=O)C(F)F)c1Cl [1-163]
AVEFA [1]; Avena fatua, 504 h, read-out: Post-emergence action against AVEFA (herbicidal action in percent)
  pest or weed control at 80 g/ha: 90%
AMARE [2]
  pest or weed control at 320 g/ha: 100%
ECHCG [3]
  pest or weed control at 320 g/ha: 100%
POLCO [22]
  pest or weed control at 80 g/ha: 100%
DIGSA [4]
  Post-emergence action against DIGSA (herbicidal action in percent): 100%
VIOTR [5]
  pest or weed control at 80 g/ha: 90%
PHBPU [6]
  pest or weed control at 320 g/ha: 80%
HORMU
  pest or weed control at 320 g/ha: 90%
VERPE [7]
  pest or weed control at 320 g/ha: 100%
POLCO [23]
  pest or weed control at 320 g/ha: 90%
VERPE [8]
  pest or weed control at 80 g/ha: 90%
ABUTH [9]
  pest or weed control at 80 g/ha: 90%
VIOTR [10]
  pest or weed control at 320 g/ha: 100%
LOLRI; Lolium rigidum, 504 h, read-out: Pre-emergence action against LOLRI (herbicidal activity)
  pest or weed control at 320 g/ha: 90%
ABUTH [11]
  pest or weed control at 320 g/ha: 100%
ALOMY
  pest or weed control at 320 g/ha: 90%
DIGSA [12]
  Pre-emergence action against DIGSA (herbicidal activity): 100%
ECHCG [13]
  pest or weed control at 80 g/ha: 90%
STEME [14]
  pest or weed control at 320 g/ha: 100%
STEME [15]
  pest or weed control at 80 g/ha: 100%
AVEFA [16]
  pest or weed control at 320 g/ha: 100%
MATIN [17]
  pest or weed control at 320 g/ha: 100%
AMARE [18]
  pest or weed control at 80 g/ha: 90%
MATIN [19]
  pest or weed control at 80 g/ha: 90%
PHBPU [20]
  pest or weed control at 80 g/ha: 90%
SETVI [24]
  pest or weed control at 80 g/ha: 80%
SETVI [21]
  pest or weed control at 320 g/ha: 100%

## CC(=O)C(=O)c1c(C(F)(F)F)ccc(C(=O)Nc2nnnn2C)c1Cl [1-146]
AMARE [2]
  pest or weed control at 320 g/ha: 100%
ECHCG [3]
  pest or weed control at 320 g/ha: 100%
DIGSA [4]
  Post-emergence action against DIGSA (herbicidal action in percent): 80%
VIOTR [5]
  pest or weed control at 80 g/ha: 90%
PHBPU [6]
  pest or weed control at 320 g/ha: 90%
HORMU
  pest or weed control at 320 g/ha: 80%
VERPE [7]
  pest or weed control at 320 g/ha: 90%
POLCO [23]
  pest or weed control at 320 g/ha: 80%
VERPE [8]
  pest or weed control at 80 g/ha: 90%
ABUTH [9]
  pest or weed control at 80 g/ha: 100%
VIOTR [10]
  pest or weed control at 320 g/ha: 100%
ABUTH [11]
  pest or weed control at 320 g/ha: 100%
ALOMY
  pest or weed control at 320 g/ha: 90%
DIGSA [12]
  Pre-emergence action against DIGSA (herbicidal activity): 100%
ECHCG [13]
  pest or weed control at 80 g/ha: 100%
STEME [14]
  pest or weed control at 320 g/ha: 100%
STEME [15]
  pest or weed control at 80 g/ha: 100%
AVEFA [16]
  pest or weed control at 320 g/ha: 90%
MATIN [17]
  pest or weed control at 320 g/ha: 100%
AMARE [18]
  pest or weed control at 80 g/ha: 100%
MATIN [19]
  pest or weed control at 80 g/ha: 90%
PHBPU [20]
  pest or weed control at 80 g/ha: 80%
SETVI [24]
  pest or weed control at 80 g/ha: 100%
SETVI [21]
  pest or weed control at 320 g/ha: 100%

Reference: patent publication US11051515B2, “3-acyl-benzamides and their use as herbicides” (Bayer Aktiengesellschaft, priority 2017, dated 2021)
